Assay results published in patent publication US12624050B2, “Three fused ring derivative-containing salt or crystal form and pharmaceutical composition thereof” (Shanghai Hansoh Biomedical Co., Ltd., priority 2019, dated 2026).

Tests used:
SD rats = experiment: Toxicity test of a 7-day repeatedly intragastric administration in SD rats; format: in vivo; details: 7 days; for tolerance compared with GDC-0077: SD rats, 10, 30 and 60 mg/kg once/day
Excerpt: (§1) • Test compound 1: GDC-0077 • Test compound 2: the compounds of Example 22 and Example 62 3.2.2 Vehicle • Name: 20% aqueousSBE-β-CD (Captisol) solution 3.2.3 Animal Information • Species & strains: Sprague-Dawley (SD) rat • Animal grade: SPF grade • Number and sex of animals: 160 rats, half male and half female. 3.2.4 Instruments • The ADVIA®2120 series Hematology System with Autoslide was used for blood cell counting; • The SYSMEX CA-500 Coagulation Analyzer was used for the detection of coagulation function indicators; • The TBA-120FR Automated Biochemical Analyzer was used for the detection of blood biochemical indicators; • The Easylyte Electrolyte Analyzer was used for the detection of electrolytes; • The liquid mass spectrometry detector model API4000; • The electron spray ionization (ESI) positive ion mode and column type Agilent ZORBAX XDB-C18 (3.5 μm, 2.1×50 mm) were used for bioanalytical detection of plasma samples. 3.3 Experimental Method • 1) In the experiment, 160 rats (80 rats/sex) were divided into 20 groups according to their sex and body weight, wherein 100 rats were used for toxicology study (groups 1 to 10, 5 rats/sex/group) and 60 rats were used for toxicokinetic study (groups 11 to 20, 3 rats/sex/group); • 2) As the vehicle control group, the animals in groups 1 and 11 were intragastrically administered 20% aqueous SBE-β-CD (Captisol) solution; • 3) The animals in groups 2 and 12, groups 3 and 13, and groups 4 and 14 were intragastrically administered 10, 30 and 60 mg/kg of GDC-0077, respectively; • 4) The animals in groups 5 and 15, groups 6 and 16, and groups 7 and 17 were intragastrically administered 10, 30 and 60 mg/kg of the compound of Example 22, respectively; • 5) The animals in groups 8 and 18, groups 9 and 19, groups 10 and 20 were intragastrically administered 10, 30 and 60 mg/kg of the compound of Example 62, respectively; • 5) The animals were administered once a day for 7 consecutive days (the animals in groups 7, 17, 10 and 20 were administered for 6 consecutive days). • 6) The administration volume was 10 mL/kg. • 7) During the experiment, items such as clinical observation, body weight, food intake, clinicopathological indicators (blood cell count, coagulation function, blood biochemistry), toxicokinetics and the like were studied. • 8) All animals were euthanized on Day 8 (the animals in groups 7, 10, 17 and 20 were euthanized after administration on Day 6). • 9) During the experiment, gross anatomical observation was performed on the animals in groups 1 to 10, animals in groups 17 and 20, and dead animals (including animals in toxicological study). Histopathological examination was performed on abnormal tissues, gastrointestinal tissues (such as colon, cecum) and immune tissues (such as thymus). […]

[1] = Toxicokinetics in the 7-day repeated intragastric administration study in SD rats; format: in vivo, Sprague-Dawley (SD) rat
Excerpt: as §1

PI3Kα = biological target: T1, PI3Kα (Homo sapiens, UniProt P42336); experiment: ADP-Glo Lipid Kinase Assay, PI3Kα kinase activity; format: biochemical
T1 construct: purchased Promega #V1721
Procedure: In this experiment, ADP-Glo Lipid Kinase Assay (Promega #V9102) from Promega was used. The lipid kinases PI3Kα/β/γ/δ catalyzed the ATP-to-ADP reaction in the presence of the substrate PIP2:3PS and ATP. The lipid kinase activity was characterized by measuring the ADP content in the reaction, and the half inhibition concentrations IC50 of the compounds on PI3Kα/β/γ/δ kinase activity were obtained.
Kinase reactions were carried out in white 384-well plates (Perkin Elmer #6007299). 2 μL of the compound of various concentrations diluted with ddH2O containing 1% DMSO was added to each well, and 2 μL of ddH2O containing 1% DMSO was added to positive control wells. […] After the reaction was carried out for 20 minutes at room temperature in the dark, the chemiluminescence was measured by BioTek Synergy H1 microplate reader.
The percentage inhibition data of the compound-treated well was calculated from positive control wells (DMSO control wells) and negative control wells (no kinase added) on the plate {% inhibition=100−[(test compound value−negative control value)]/(positive control value-negative control value)×100}. IC50 values were calculated using GraphPad prism and using a four-parameter nonlinear logistic formula to fit the data of different concentrations and corresponding percent inhibition.

[2] = Pharmacokinetic (PK) assay in mice, single intragastric administration; format: in vivo; details: mouse, po, Balb/c male mice, 5 mg/kg, plasma; for AUC(0-t): read-out: Area under the curve AUC0-t; for AUC(0-inf): read-out: Area under the curve AUC0-∞; for half-life: read-out: Half life t1/2 (converted); for MRT: read-out: Mean residence time MRT; for Tmax: read-out: Peak time tmax; for Cmax: read-out: Plasma concentration Cmax
Procedure: The pharmacokinetic assay of the preferred compounds of the examples of the present invention in mice was carried out in Balb/c male mice (Shanghai Jiesijie Laboratory Animal Co., Ltd.).
5.1 Administration route: single intragastric administration.
5.2 Administration dose: 5 mg/10 ml/kg (body weight).
5.3 Formulation: the compound was dissolved in 0.5% CMC-Na by ultrasound to obtain a clear solution or a homogeneous suspension.
5.4 Sampling points: 0.5, 1, 2, 4, 6, 8 and 24 hours after administration.
• 1) 0.1 mL of orbital blood was collected and placed in a K2-EDTA test tube, centrifuged at 1000 to 3000×g at room temperature for 5 to 20 min to separate the plasma, which was then stored at −80° C. • 2) 160 uL of acetonitrile was added to 40 uL of plasma sample for precipitation. After mixing, the sample was centrifuged at 500 to 2000×g for 5 to 20 minutes. • 3) 100 uL of the supernatant after processing was taken and analyzed by LC/MS/MS assay to determine the concentrations of the example compound. 5.6 LC-MS/MS Assay: • Liquid chromatography condition: Shimadzu LC-20AD pump • Mass spectrometry condition: AB Sciex API 4000 mass spectrometer • Chromatographic column: phenomenex Gemiu 5 μm C18 50×4.6 mm • Mobile phase: solution A was 0.1% aqueous formic acid solution, and solution B was acetonitrile • Flow rate: 0.8 mL/min • Elution time: 0 to 4 minutes, gradient elution 5.7 Pharmacokinetics: […]

[3] = doses of 10, 30 and 60 mg/kg once/day

T1 sequence (P42336 whole entry): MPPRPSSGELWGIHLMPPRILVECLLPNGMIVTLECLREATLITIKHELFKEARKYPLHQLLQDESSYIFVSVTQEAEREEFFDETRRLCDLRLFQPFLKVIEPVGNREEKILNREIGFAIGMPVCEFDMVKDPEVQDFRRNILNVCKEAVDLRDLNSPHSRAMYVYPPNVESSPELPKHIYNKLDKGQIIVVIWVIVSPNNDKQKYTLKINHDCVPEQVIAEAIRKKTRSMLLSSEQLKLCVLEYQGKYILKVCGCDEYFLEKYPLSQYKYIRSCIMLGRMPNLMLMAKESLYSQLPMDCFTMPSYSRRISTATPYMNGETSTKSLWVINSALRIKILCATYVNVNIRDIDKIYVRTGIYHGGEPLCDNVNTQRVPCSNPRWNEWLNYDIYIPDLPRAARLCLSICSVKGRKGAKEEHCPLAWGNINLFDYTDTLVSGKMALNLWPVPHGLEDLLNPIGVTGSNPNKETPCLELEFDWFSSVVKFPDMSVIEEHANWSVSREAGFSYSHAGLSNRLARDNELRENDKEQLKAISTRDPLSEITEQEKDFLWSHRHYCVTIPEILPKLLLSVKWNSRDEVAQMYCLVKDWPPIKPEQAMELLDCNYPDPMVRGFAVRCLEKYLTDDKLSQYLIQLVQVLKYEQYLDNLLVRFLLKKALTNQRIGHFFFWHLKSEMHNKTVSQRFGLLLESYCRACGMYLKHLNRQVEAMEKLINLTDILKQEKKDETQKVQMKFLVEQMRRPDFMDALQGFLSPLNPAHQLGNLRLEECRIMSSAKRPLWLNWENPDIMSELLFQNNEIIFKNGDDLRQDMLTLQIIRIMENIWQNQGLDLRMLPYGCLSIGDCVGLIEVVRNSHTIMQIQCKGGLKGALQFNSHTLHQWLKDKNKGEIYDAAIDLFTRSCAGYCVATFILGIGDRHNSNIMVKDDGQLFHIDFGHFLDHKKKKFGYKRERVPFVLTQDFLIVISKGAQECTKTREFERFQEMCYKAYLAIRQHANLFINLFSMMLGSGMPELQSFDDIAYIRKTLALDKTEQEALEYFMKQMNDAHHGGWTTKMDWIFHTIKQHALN
T1 sequence (P27986 whole entry partner): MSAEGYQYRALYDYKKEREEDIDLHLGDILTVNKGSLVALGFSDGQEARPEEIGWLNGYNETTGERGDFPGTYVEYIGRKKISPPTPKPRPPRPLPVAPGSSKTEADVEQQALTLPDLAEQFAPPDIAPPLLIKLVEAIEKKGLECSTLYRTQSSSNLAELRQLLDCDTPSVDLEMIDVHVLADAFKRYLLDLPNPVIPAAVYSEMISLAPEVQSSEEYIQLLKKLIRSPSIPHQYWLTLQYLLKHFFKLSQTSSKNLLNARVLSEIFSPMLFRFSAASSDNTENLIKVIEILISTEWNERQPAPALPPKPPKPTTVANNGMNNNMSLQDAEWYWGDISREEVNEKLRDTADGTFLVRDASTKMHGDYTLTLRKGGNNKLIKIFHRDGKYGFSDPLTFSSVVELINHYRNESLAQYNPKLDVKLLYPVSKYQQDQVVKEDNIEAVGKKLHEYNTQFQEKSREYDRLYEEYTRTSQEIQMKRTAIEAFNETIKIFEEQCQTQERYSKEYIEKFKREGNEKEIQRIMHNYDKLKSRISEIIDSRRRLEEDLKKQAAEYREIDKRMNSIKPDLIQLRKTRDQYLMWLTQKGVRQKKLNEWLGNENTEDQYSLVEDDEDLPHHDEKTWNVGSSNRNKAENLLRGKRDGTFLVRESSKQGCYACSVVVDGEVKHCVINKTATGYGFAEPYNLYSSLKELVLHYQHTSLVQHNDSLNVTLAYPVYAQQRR

Structure (SMILES)	tolerance compared with GDC-0077 (SD rats)	lethal dose (SD rats; SD rats, intragastric once/day) [mg/kg]	systemic exposure compared with GDC-0077 at the same dose [1]	Cmax and AUC(0-24 h) compared with GDC-0077 ([1]; dose of 30 mg/kg)	Cmax and AUC(0-24 h) compared with GDC-0077 [1, 3]	IC50 (PI3Kα) [nM]	AUC(0-t) [2] [µg·h/mL]	AUC(0-inf) [2] [µg·h/mL]	half-life [2] [h]	MRT [2] [h]	Tmax [2] [h]	Cmax [2] [µg/mL]
C[C@H](Nc1ccc2c(c1)OCCn1cc(N3C(=O)SC[C@H]3C(F)F)nc1-2)C(N)=O [Example 22, (S)-2-((2-((R)-4-(difluoromethyl)-2-oxothiazolidin-3-yl)-5,6-dihydrobenzo[f]imidazo[1,2-d][1,4]oxazepin-9-yl)amino)propionamide]	better than that of GDC-0077	60	significantly higher than that of GDC-0077	significantly higher than those of GDC-0077	significantly higher than those of GDC-0077							
C[C@H](Nc1ccc2c(c1)N(C)CCn1cc(N3C(=O)OC[C@H]3C(F)F)nc1-2)C(N)=O [Example 56, (S)-2-((2-((S)-4-(difluoromethyl)-2-oxooxazolidin-3-yl)-7-methyl-6,7-dihydro-5H-benzo[f]imidazo[1,2-d][1,4]diazoheptin-9-yl)amino)propionamide]						0.5	1.35	1.36	1.6	2.2	0.5	0.985
C[C@H](Nc1ccc2c(c1)SCCn1cc(N3C(=O)OC[C@H]3C(F)F)nc1-2)C(N)=O [Example 62, (S)-2-((2-((S)-4-(difluoromethyl)-2-oxooxazolidin-3-yl)-5,6-dihydrobenzo[f]imidazo[1,2-d][1,4]thiazepin-9-yl)amino)propionamide]	better than that of GDC-0077				significantly higher than those of GDC-0077	0.1	3.44	3.47	1.5	2.8	0.5	1.25
